The values that follow come from US20090241222A1, “TANDEM REAPEAT DNA CONSTRUCTS PRODUCING PROTEINS THAT ATTACK PLANT PATHOGENIC VIRUSES, FUNGI, AND BACTERIA BY DISRUPTING TRANSCRIPTION FACTORS ESSENTIAL FOR REPLICATION THEREOF IN PLANTS” (priority 2008, published 2009).

One data set deals with Mammalian rotaviruses. The conditions noted are these: millimolar concentrations; cited from earlier work.
The test system of a further data set is mammalian retroviruses. The following applies: millimolar concentrations; cited from earlier work.
A further data set relates to HSV-1. The following applies: tissue culture and animals; cited from earlier work.
The target in data set [1] is T1, recombinant MPS-1 (CCCC zinc finger) (Homo sapiens, UniProt P42677).
T1 construct: made in house
Briefly: Gel shift assay and radioactive Zn65 removal from recombinant MPS-1. The format is biochemical. An excerpt: MPS-1 is a ubiquitous tumor marker and cell growth stimulator and is described in detail in the inventors' U.S. Pat. No. 5,243,041. MPS-1 has one zinc finger domain of the type CCCC. […] This is detected by a change in the electrophoretic mobility of MPS-1 under non-denaturing conditions. These experiments indicate that picolinic acid and derivatives should remove zinc and denature various types of zinc finger, zinc ring proteins, or other types of ZF motifs whether known or heretofore undiscovered, including animal or plant viral proteins such as nucleocapsid proteins of retrovirus or the nucleocapsid proteins of Geminivirus. Furthermore, the inventors have determined that any chemical compound, whether known or heretofore undiscovered, that will remove the zinc (or other metal) and denature the proteins or that will form a ternary complex (protein-zinc-chelator) can be effective as an antiviral agent, with nontoxic effects, provided that the agent conforms with certain specific structural requirements.
A general note: Mobility shift assays separate free from complexed probe on a gel.

In data set [2] the test system is HIV-1, Hepatitis C and numerous other viruses as well as the host cells. Briefly: Fate of virus-infected host cells after treatment. The class given is cell-based. An excerpt:
APOPTOSIS. Apoptosis is a morphological pattern of cell injury and an important mode of cell death (Robbins, Pathological Basis of Disease, 1999, 6th Ed). Apoptosis shares and overlaps common mechanisms with necrosis. […] This form of cell death is designed to eliminate defective, unwanted and damaged cells. For example, the inventors have shown that cells infected by Herpes Simplex Virus 1 (HSV; labialis) and HSV-2 genitalis are destroyed together with the host cells that they infected by apoptosis when exposed to pyridine carboxylates (Fernandez-Pol, Anticancer Res. 2002). […] Thus, the inventors believes that when host cells of animals or plants are infected by pathogenic viruses, unless the treatment is extremely quickly, the host cells and the virus will be destroyed. In fact, host cells defective, mutated, and reservoirs for the novo synthesis of viruses are unwanted host cells and must be eliminated in many instances to allow the survival of the organism.

The next data set concerns Orobanche ramosa. The conditions noted are these: Arabidopsis thaliana pre-treated with FU; cited from earlier work.
Data set [3] has as its system Common ornamental plant cells infected by viruses. Briefly: Treatment of virus-infected ornamental plants. The conditions noted are these: viral strains not determined.
Another data set deals with HSV-2. The conditions noted are these: tissue culture and animals; cited from earlier work.
The test system of data set [4] is Arabidopsis thaliana. The following applies: in vivo; cited from earlier work.
In data set [5] the test system is SV40 transformed BALB-3T3 cells. The conditions noted are these: cited from earlier work.
Data set [6] relates to normal cells (NRK, BALB 3T3). The following applies: cited from earlier work.
Data set [7] deals with virally-transformed cells. The following applies: cited from earlier work.
Data set [8] deals with cells (iron incorporation). The conditions noted are these: cited from earlier work.
In the next data set the test system is rice. The conditions noted are these: in vivo; cited from earlier work.
The subject of another data set is NRK cells. The conditions noted are these: cells treated with picolinic acid; cited from earlier work.
For data set [9], the system named is marker defense genes PR-1, PR-2 and PDF1.2. The following applies: dose-dependent and time dependent; cited from earlier work.
Data set [10] deals with Arabidopsis thaliana. The following applies: cited from earlier work.
For data set [11], the system named is tomato spotted wilt virus. The conditions noted are these: tomato and tobacco plants; cited from earlier work.

Entries after “also recorded” stand apart in the source; their conditions may differ. Like-named read-outs stand apart in the source and are kept apart here. Where only a bound is given, the exact number is not on record here.

For the compound `O=C(O)CN(CCOCCOCCN(CC(=O)O)CC(=O)O)CC(=O)O` [EGTA], the “disintegration of viral membranes and release of Zinc Finger Proteins” value in the data set on Mammalian rotaviruses was “partial disintegration of the viral membranes”. Moreover, the “disintegration of viral membranes (release of reverse transcriptase)” value with mammalian retroviruses is listed as “partial disintegration of viral membranes”.
In the case of `CCCCc1ccc(C(=O)O)nc1` [fusaric acid, 5-butyl picolinic acid], in the data set with HSV-1, the “efficacy against viral infection by HSV-1” value is “effective”. Further, in data set [1], the “removal of zinc (radioactive Zn65) from CCCC zinc finger of MPS-1” value is reported as “remove radioactive Zn65 from MPS-1; also recorded: remove zinc” and the “zinc dependent binding of recombinant MPS-1 to DNA (gel shift assays)” value is on record as “inhibit the zinc dependent binding of recombinant MPS-1 to DNA”. Further, the “fate of viruses and host cells after treatment” value in [2] is listed as “Death by apoptosis”. In the data set on Orobanche ramosa, the “germination of the angiosperm parasite” value is on record as “inhibited”. For the same compound, in data set [3], the “outcome of treatment of virus-infected ornamental plants” value was “positive results”. In addition, the “efficacy against viral infection by HSV-2” value in the data set with HSV-2 is on record as “effective”. In addition, in the data set on Arabidopsis thaliana [4], the “concentration eliciting plant defense responses without toxic effects” value is on record as 100 nM; the “concentrations that reduced root growth and induced membrane hyperpolarization/depolarization” value is > 500 µM.
For the compound `NC(=O)c1cccnc1` [Nicotinamide, reference compound], the “effect on cell growth or apoptosis” value in data set [5] (at 48 h) is “no effect”.
As for `O=C(O)c1ccccn1` [picolinic acid, 2-pyridine carboxylic acid], the “mitochondrial cytochrome c release” value in data set [5] (3 mM picolinic acid) was “released cytochrome c”. Also, in data set [6], the “toxicity to normal cells” value is given as “no toxic effects”. Further, the “cell cycle arrest, Flow Microfluorometric Analysis of DNA” value in data set [7] (Kirsten sarcoma virus transformed cells) is on record as “G1 phase”. Besides, the “cytotoxicity in transformed cells” value in data set [7] (longer exposure/further incubation) was “cytotoxicity and cell death was observed in all transformed cells; also recorded: cell death by apoptosis was observed in all transformed cells”. In data set [1], the “removal of zinc (radioactive Zn65) from CCCC zinc finger of MPS-1” value was “remove radioactive Zn65 from MPS-1; also recorded: remove zinc” and the “zinc dependent binding of recombinant MPS-1 to DNA (gel shift assays)” value is given as “inhibit the zinc dependent binding of recombinant MPS-1 to DNA”. In data set [2], the “fate of viruses and host cells after treatment” value was “Death by apoptosis”. Moreover, in data set [8], the “incorporation of iron into the cells” value is recorded as “inhibits incorporation of iron into the cells” and the “removal of radioiron from the cells” value is recorded as “effectively removes radioiron from the cells”. Besides, the “hypersensitive response (HR)” value in the data set with rice is reported as “elicit the hypersensitive response (HR)”. Further, in the data set with NRK cells, the “potency of prostaglandin E1 in elevating cyclic AMP” value is “two to five times more potent”. In data set [9], the “induction of marker defense genes PR-1, PR-2 and PDF1.2” value is listed as “all induced”. The “outcome of treatment of virus-infected ornamental plants” value in data set [3] is listed as “positive results”.
Regarding `O=C(O)CN(CCN(CC(=O)O)CC(=O)O)CC(=O)O` [EDTA], in the data set on Mammalian rotaviruses, the “disintegration of viral membranes and release of Zinc Finger Proteins” value is given as “partial disintegration of the viral membranes”. For the same compound, the “disintegration of viral membranes (release of reverse transcriptase)” value in the data set with mammalian retroviruses is reported as “partial disintegration of viral membranes”.
Regarding `COS(C)(=O)=O` [MMS, Methyl Methane Sulphonate], the “growth and size of the plant” value in the data set on Arabidopsis thaliana [10] (ars27A mutant, 3 weeks) is on record as “strongly inhibited”; in the data set on Arabidopsis thaliana [10] (wild type, same concentrations), “not affecting”.
For the compound `NC(=O)c1ncn([C@@H]2O[C@H](CO)[C@@H](O)[C@H]2O)n1` [Virazole (Ribavirin)], the “use against tomato spotted wilt virus” value in data set [11] is recorded as “successfully used”.
